Here are results for 17 compounds from patent US20030013744A1, “3,4-diaryl thiophenes and analogs thereof having use as anti-inflammatory agents” (G.D. Searle & Co., priority 1993, published 2003).

Where two headings read alike, the source gives them in different places. Bounds are passed on as bounds.

Data set [1] can be described thus: Whole Blood Assay for Thromboxane B2 Activity. In kind it is cell-based. Particulars: calcium ionophore A23187. As to the method:
Whole Blood Assay for Thromboxane B2 Activity:
Thromboxane B2 (TXB2) activity was assayed using an ELISA to detect the TXB2 released. Various concentrations of compounds and standards were prepared by a set of serial dilutions (1:3) in a microtiter plate with ethanol. In U-bottom microtiter plates, 50 μl whole blood (green top heparin), 150 μl RPMI media (JRH Biosciences) and 5 μl compound solution were mixed and preincubated at 37° C. for fifteen minutes prior to the addition 4 μg of the calcium ionophore A23187. Any reaction between the compounds and the cells was stopped after ten minutes at 37° C. by centrifuging the cells at 2000 rpm for ten minutes at 4° C. and transferring 20 μl of the supernatant into 180 μl ELISA enzyme immuno assay buffer. The TXB2 formed was measured by standard ELISA technology (Cayman Chemical). To washed and pre-coated (goat anti-rabbit IgG H&L) microtiter plates, was added 40 μl enzyme immuno assay buffer, 10 μl diluted supernatants, 50 μl […] and 50 μl TXB2 antisera. After covered overnight incubation at room temperature. 200 μl Ellman reagent was added and incubated. The absorbance was read at 405 nm with a 650 nm reference.

Another data set addresses T1, Murine COX II (Mus musculus, UniProt Q05769).
T1 construct: A 2.0 kb fragment containing the coding region; made in house; host or cells: SF9 insect cells (baculovirus, transfer vector pVL1393)
T1 sequence (Q05769 18-604): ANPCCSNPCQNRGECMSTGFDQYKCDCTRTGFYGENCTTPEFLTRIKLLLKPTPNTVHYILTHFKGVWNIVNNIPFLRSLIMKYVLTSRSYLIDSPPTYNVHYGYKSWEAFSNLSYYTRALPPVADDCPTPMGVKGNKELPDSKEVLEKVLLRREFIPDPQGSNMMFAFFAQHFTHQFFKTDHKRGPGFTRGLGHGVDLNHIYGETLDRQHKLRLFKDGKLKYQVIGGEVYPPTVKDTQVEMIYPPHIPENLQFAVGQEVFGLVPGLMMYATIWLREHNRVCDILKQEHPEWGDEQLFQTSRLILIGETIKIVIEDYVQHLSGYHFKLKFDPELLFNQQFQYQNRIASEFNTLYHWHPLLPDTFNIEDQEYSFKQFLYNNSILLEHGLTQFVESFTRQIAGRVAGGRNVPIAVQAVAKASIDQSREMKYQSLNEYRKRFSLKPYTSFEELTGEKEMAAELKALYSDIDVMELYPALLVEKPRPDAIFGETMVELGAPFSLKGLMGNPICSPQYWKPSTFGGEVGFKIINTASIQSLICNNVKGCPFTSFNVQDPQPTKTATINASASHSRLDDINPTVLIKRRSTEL
In words: Assay for COX II activity in vitro (PGE2 ELISA, recombinant enzyme). In kind it is biochemical. As to conditions: read-out: Murine COX II ID50.

A further data set concerns the target T2, Murine COX I (Mus musculus, UniProt P22437).
T2 construct: A 2.0 kb fragment containing the coding region; made in house; host or cells: SF9 insect cells (baculovirus, transfer vector pVL1393)
T2 sequence (P22437 27-602): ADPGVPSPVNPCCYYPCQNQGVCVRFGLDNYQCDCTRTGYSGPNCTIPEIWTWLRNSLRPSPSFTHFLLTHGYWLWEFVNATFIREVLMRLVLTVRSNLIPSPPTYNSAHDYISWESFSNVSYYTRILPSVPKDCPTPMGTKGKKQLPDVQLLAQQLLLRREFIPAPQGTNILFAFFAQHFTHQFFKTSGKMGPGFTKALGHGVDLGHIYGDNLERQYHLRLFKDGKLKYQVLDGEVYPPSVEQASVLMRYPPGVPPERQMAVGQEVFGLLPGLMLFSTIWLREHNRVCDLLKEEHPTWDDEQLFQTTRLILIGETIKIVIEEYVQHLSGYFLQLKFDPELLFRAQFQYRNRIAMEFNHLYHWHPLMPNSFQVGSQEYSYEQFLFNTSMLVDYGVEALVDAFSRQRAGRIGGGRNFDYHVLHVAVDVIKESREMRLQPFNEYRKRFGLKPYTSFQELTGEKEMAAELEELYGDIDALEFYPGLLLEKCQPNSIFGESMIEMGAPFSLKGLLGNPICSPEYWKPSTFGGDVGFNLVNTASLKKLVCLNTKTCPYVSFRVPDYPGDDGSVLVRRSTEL
In words: Assay for COX I activity in vitro (PGE2 ELISA, recombinant enzyme). In kind it is biochemical. Particulars: read-out: Murine COX I ID50. (In an ELISA, binding on a coated surface is turned into a signal by an enzyme label.)

For data set [2] the following is noted: Gen. Pharmac., 24, 105 (1993); cited from earlier work.
For data set [3] the following is noted: Gen. Pharmac., 24, 105 (1993); cited from earlier work. The source holds these as a separate data set.
A further data set addresses T3, human COX I (Homo sapiens, UniProt P23219).
T3 construct: A 2.0 kb fragment containing the coding region; made in house; host or cells: SF9 insect cells (baculovirus, transfer vector pVL1393)
Description: Assay for COX I activity in vitro (PGE2 ELISA, recombinant enzyme). In kind it is biochemical.

The next data set addresses T4, human COX II (Homo sapiens, UniProt P35354).
T4 construct: A 2.0 kb fragment containing the coding region; made in house; host or cells: SF9 insect cells (baculovirus, transfer vector pVL1393)
T4 sequence (P35354 18-604): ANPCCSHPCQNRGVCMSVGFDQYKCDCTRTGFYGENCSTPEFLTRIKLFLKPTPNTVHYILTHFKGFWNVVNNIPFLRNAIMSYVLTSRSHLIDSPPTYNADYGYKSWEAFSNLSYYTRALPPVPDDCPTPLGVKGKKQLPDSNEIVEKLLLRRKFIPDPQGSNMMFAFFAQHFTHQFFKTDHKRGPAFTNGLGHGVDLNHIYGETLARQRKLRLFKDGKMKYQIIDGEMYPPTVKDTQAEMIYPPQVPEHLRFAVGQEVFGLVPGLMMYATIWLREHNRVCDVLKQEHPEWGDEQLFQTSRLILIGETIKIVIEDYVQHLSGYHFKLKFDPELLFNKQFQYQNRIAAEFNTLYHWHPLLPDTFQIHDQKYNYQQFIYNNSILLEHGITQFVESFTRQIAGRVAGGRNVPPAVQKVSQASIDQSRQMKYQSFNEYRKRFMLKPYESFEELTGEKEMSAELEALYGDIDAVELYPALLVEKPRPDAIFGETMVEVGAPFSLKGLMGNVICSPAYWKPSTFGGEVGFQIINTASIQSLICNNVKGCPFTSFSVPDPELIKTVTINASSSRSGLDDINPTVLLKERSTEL
Description: Assay for COX II activity in vitro (PGE2 ELISA, recombinant enzyme). In kind it is biochemical.

The target of a further data set is T5, COX II enzyme (Mus musculus, UniProt Q05769).
T5 sequence (Q05769 18-604): T1 sequence (Q05769 18-604)
As to conditions: J. Biol. Chem., 268, 6610 (1993); cited from earlier work.

T3 sequence (P23219 24-599): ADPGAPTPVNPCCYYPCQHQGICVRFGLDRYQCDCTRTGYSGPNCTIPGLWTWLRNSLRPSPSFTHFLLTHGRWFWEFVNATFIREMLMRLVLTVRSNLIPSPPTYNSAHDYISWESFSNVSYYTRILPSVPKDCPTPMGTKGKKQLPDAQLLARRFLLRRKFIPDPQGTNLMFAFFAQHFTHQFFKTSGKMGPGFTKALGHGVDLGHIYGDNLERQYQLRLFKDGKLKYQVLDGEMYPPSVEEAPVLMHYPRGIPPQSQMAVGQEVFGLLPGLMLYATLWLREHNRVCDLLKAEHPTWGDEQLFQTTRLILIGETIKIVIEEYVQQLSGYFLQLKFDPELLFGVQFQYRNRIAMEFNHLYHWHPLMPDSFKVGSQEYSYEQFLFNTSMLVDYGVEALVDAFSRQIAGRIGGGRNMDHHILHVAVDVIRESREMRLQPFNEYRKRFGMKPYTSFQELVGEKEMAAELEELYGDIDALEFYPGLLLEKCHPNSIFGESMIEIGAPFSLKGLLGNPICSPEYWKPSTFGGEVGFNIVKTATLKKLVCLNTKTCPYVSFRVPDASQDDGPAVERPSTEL

Take `COc1ccc(-c2c(-c3ccc(S(C)(=O)=O)cc3)csc2Br)cc1` [Example 7, 3-(4-Methylsulfonylphenyl)-4-(4-methoxyphenyl)-5-bromothiophene]: the IC50 (in data set [1]; at Murine COX II; on Murine COX I) was less than 0.1 µM each time.

On to `CS(=O)(=O)c1ccc(-c2c(Br)sc(Br)c2-c2ccc(F)cc2)cc1` [Example 3, 4-(4-Methylsulfonylphenyl)-3-(4-fluorophenyl)-2,5-dibromothiophene], for which, at Murine COX II, the IC50 amounted to 1.5 µM.

`CCOC(=O)c1sc(C(=O)O)c(-c2ccc(F)cc2)c1-c1ccc(S(C)(=O)=O)cc1` [Example 8, 2-Ethoxycarbonyl-4-(4-fluorophenyl)-3-(4-methanesulfonylphenyl)-thienyl-5-carboxylic acid]: the IC50 was 5.5 µM on Murine COX II and greater than 100 µM on Murine COX I.

For the compound `CS(=O)(=O)Nc1ccc([N+](=O)[O-])cc1OC1CCCCC1` [N-(2-cyclohexyloxy-4-nitrophenyl)methanesulfonamide], in [2], the gastric side effects entry is recorded as “lacks gastric side effects”. For the same compound, the antiinflammatory activity entry in data set [3] is on record as “antiinflammatory”.

Regarding `CS(=O)(=O)c1ccc(-c2cscc2-c2ccc(F)cc2)cc1` [Example 1, 3-(4-Methylsulfonylphenyl)-4-(4-fluorophenyl)thiophene], the IC50 is 21 µM in [1], greater than 100 µM on human COX I and less than 0.1 µM on human COX II.

Turning to `CCOC(=O)c1scc(-c2ccc(S(C)(=O)=O)cc2)c1-c1ccc(F)cc1` [Example 5, Ethyl[4-(4-methylsulfonylphenyl)-3-(4-fluorophenyl)thien-2-yl]carboxylate], the IC50 was less than 0.1 µM at Murine COX II and greater than 3 µM on Murine COX I.

By melting point is commonly meant the temperature, or range, at which the solid turns liquid. Take `CS(=O)(=O)c1ccc(-c2cscc2-c2ccc(F)nc2)cc1` [Example 14]: the melting point was 190 to 191 °C (dec.). Also, in data set [1], the IC50 came to 27 µM. The IC50 on Murine COX II came out at 0.2 µM. At Murine COX I, the IC50 is greater than 10 µM.

With `CS(=O)(=O)c1ccc(-c2csc(Br)c2-c2ccc(F)cc2)cc1` [Example 2, 4(4-Methylsulfonylphenyl)-3-(4-fluorophenyl)-2-bromothiophene], the IC50 turned out to be 0.4 µM in data set [1] and 3.5 µM at Murine COX I.

As to `CS(=O)(=O)c1ccc(-c2c(C(=O)O)sc(C(=O)O)c2-c2ccc(F)cc2)cc1` [Example 9, 4-(4-Fluorophenyl)-3-(4-methanesulfonylphenyl)thienyl-2,5-dicarboxylic acid], the results for the IC50 at Murine COX II and at Murine COX I were 4.7 µM and greater than 100 µM, respectively.

`Cc1cc(F)ccc1-c1cscc1-c1ccc(S(C)(=O)=O)cc1` [Example 15, 3-(4-Methylsulfonylphenyl)-4-(2-methyl-4-fluorophenyl)thiophene] yielded a melting point of 158 to 160 °C. The IC50 in [1] was determined as 28 µM. Further, the IC50 at Murine COX I came out at 8.5 µM.

Turning to `COc1ccc(-c2cscc2-c2ccc(S(C)(=O)=O)cc2)cc1` [Example 6, 3-(4-Methylsulfonylphenyl)-4-(4-methoxyphenyl)thiophene], the IC50 is less than 0.1 µM at Murine COX II and less than 0.3 µM on Murine COX I.

Take `CS(=O)(=O)c1ccc(-c2cscc2-c2ccccc2)cc1` [Example 10, 3-(4-Methanesulfonylphenyl)-4-phenyl-thiophene]: the IC50 in data set [1] was 7 µM; at Murine COX II, less than 0.1 µM; on Murine COX I, greater than 10 µM.

`Cc1ccc(-c2cscc2-c2ccc(S(C)(=O)=O)cc2)cc1` [Example 11, 3-(4-Methanesulfonylphenyl)-4-(4-methylphenyl)thiophene]: the IC50 in [1] is 7 µM; at Murine COX II it was less than 0.1 µM; on Murine COX I, greater than 100 µM.

The compound `NS(=O)(=O)c1ccc(-c2cscc2-c2ccc(F)cc2)cc1` [Example 12, 4-[4-(4-Fluorophenyl)thien-3-yl]benzenesulfonamide] registered a melting point of 194 to 195 °C.

For the compound `COc1ccc(-c2cscc2-c2ccc(OC)cc2)cc1` [Example 4, 3,4-Bis(4-methoxyphenyl)thiophene], the IC50 in data set [1] is less than 0.1 µM; on Murine COX II, 0.8 µM; on Murine COX I, 0.3 µM.

Consider `CS(=O)(=O)c1ccc(-c2cocc2-c2ccc(F)cc2)cc1` [Example 13, 3-(4-Fluorophenyl)-4-(methylsulfonylphenyl)furan], for which the melting point fell in the range of 160 to 161 °C. In addition, on human COX I (human COX I enzyme (footnote *), read-out: COX I ID50), the IC50 was greater than 100 µM. In addition, on human COX II (human COX II enzyme (footnote *), read-out: COX II ID50), the IC50 turned out to be 1.9 µM.

Turning to `COc1ccc2cc(CC(=O)O)ccc2c1` [6-methoxy-2-napthylacetic acid], the “selective inhibition of the COX II enzyme” value on COX II enzyme was “selectively inhibit the COX II enzyme”.
